Data taken from PubChem BioAssay (NCI).
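1) Cells in 96-well plates. 2) Compound, 48 h, 5 concentrations. 3) Linear interpolation between surrounding doses. 4) Unreached endpoint = highest concentration. GI50 is the concentration that inhibits growth by half. At the TGI there is no net growth.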

Legend:
Assay in all cases: NCI tumour cell line growth inhibition, 48 h
MOLT-4 leukemia = system: MOLT-4 leukemia
U251 CNS = system: U251 CNS
UACC-62 melanoma = system: UACC-62 melanoma
SR leukemia = system: SR leukemia
UO-31 renal = system: UO-31 renal
SK-OV-3 ovarian = system: SK-OV-3 ovarian
A549 NSCLC = system: A549 NSCLC
ACHN renal = system: ACHN renal
SN12C renal = system: SN12C renal
UACC-257 melanoma = system: UACC-257 melanoma

| Structure (SMILES) | GI50 (MOLT-4 leukemia) | TGI (MOLT-4 leukemia) | GI50 (U251 CNS) | TGI (U251 CNS) | GI50 (UACC-62 melanoma) | TGI (UACC-62 melanoma) | GI50 (SR leukemia) | TGI (SR leukemia) | GI50 (UO-31 renal) | TGI (UO-31 renal) | GI50 (SK-OV-3 ovarian) | TGI (SK-OV-3 ovarian) | GI50 (A549 NSCLC) | TGI (A549 NSCLC) | GI50 (ACHN renal) | TGI (ACHN renal) | GI50 (SN12C renal) | TGI (SN12C renal) | GI50 (UACC-257 melanoma) | TGI (UACC-257 melanoma) |
| --- | --- | --- | --- | --- | --- | --- | --- | --- | --- | --- | --- | --- | --- | --- | --- | --- | --- | --- | --- | --- |
| C=C1C(=O)O[C@H]2[C@H]1CC/C(COC(=O)/C=C\C(=O)NCc1ccc(Cn3c(=O)sn(-c4ccc(Cl)cc4)c3=O)cc1)=C\CC[C@@]1(C)O[C@@H]21 | 0.499 µM | 3.27 µM | 0.713 µM | 1.6 µM | 0.724 µM | 1.47 µM | 0.24 µM | 12.3 µM | 0.515 µM | 1.1 µM | 4.04 µM | 10.7 µM | 0.871 µM | 2.35 µM | 0.404 µM | 1.03 µM | 0.666 µM | 1.63 µM | 0.8 µM | 1.72 µM |
| C=CCN1C(=O)[C@]2(SC1=S)[C@H](c1cccc(Cl)c1)CN(C)[C@]21C(=O)NC2C=CC(Cl)=C[C@H]21 (stereo not given in full) | 2.07 µM | 6.82 µM | 2.08 µM | 4.62 µM | 3.7 µM | 19.1 µM | 1.68 µM | 4.48 µM | 1.85 µM | 9.06 µM | 8.36 µM | 29.2 µM | 3.3 µM | 12.9 µM | 2.99 µM | 13.4 µM | 1.81 µM | 3.77 µM | 12.2 µM | 35.8 µM |
| C=C1C(O)C2CC(C)(C)C(=O)C2=C(CC(C)C)C12CC2 (stereo not given) | 72 µM | > 100 µM | > 100 µM | > 100 µM | > 100 µM | > 100 µM | 62.4 µM | > 100 µM | > 100 µM | > 100 µM | > 100 µM | > 100 µM | > 100 µM | > 100 µM | > 100 µM | > 100 µM | > 100 µM | > 100 µM | > 100 µM | > 100 µM |
| CC(=O)/C=C/c1ccc(N(CCO)Cc2ccc(C(C)(C)C)cc2)cc1 | 30.1 µM | 142 µM | 66.1 µM | 194 µM | 46.6 µM | 176 µM | 39.1 µM | 169 µM | 22.5 µM | 122 µM | 121 µM | 248 µM | 56.5 µM | 182 µM | 50.1 µM | 170 µM | 38.7 µM | 157 µM | 78.1 µM | 217 µM |
| Cc1ccc2c(c1)C(O)(c1ccccc1)CCS2 (stereo not given) |  | 44.7 µM |  | 45.8 µM |  | 52.7 µM |  | 40.3 µM |  | 48.7 µM |  | > 100 µM |  | > 100 µM |  | 62.6 µM |  | > 100 µM |  | > 100 µM |
| Nc1nc(N)c(-c2ccc(Cl)c(Cl)c2)c(CP(Cl)(Cl)(Cl)Br)n1 | 28.6 µM | > 100 µM | 4.8 µM | > 100 µM | 6.4 µM | 32.2 µM | 10.2 µM | > 100 µM | 17.5 µM | > 100 µM | 86.7 µM | > 100 µM | 5.37 µM | > 100 µM | 6.63 µM | > 100 µM | 6.47 µM | > 100 µM | 8.35 µM | 84.7 µM |
| CCC(=C(c1ccc(OCCN2CCCC2)cc1)c1ccc(OCCN2CCCC2)cc1)c1ccc(Cl)cc1 | 0.592 µM | 1.32 µM | 0.576 µM | 1.14 µM | 0.61 µM | 1.16 µM | 0.347 µM | 1.09 µM | 0.5 µM | 0.965 µM | 0.583 µM | 1.14 µM | 0.594 µM | 1.21 µM | 0.585 µM | 1.06 µM | 0.572 µM | 1.1 µM | 0.595 µM | 1.18 µM |
| CC(=O)O[C@H]1CC[C@]2(C)C3C(=O)C[C@]4(C)[C@@H](C(C)CCC(=O)O)CC[C@@]4(C)[C@@H]3CC[C@H]2C1(C)C (stereo not given in full) | > 50 µM | > 50 µM | 7 µM | 20 µM | 21.7 µM | > 50 µM | 16.6 µM | > 50 µM | 40.7 µM | > 50 µM | 21.4 µM | > 50 µM | 15.6 µM | > 50 µM | 10.7 µM | 35.4 µM | > 50 µM | > 50 µM | 13.3 µM | 33.9 µM |
| COc1ccc2nc3ccccc3c(NCc3ccccc3)c2c1 | 2.76 µM | 11.2 µM | 2.71 µM | 8.34 µM | 2.29 µM | 6.05 µM | 1.38 µM | 4.51 µM | 1.54 µM | 5.34 µM | 2.45 µM | 9.08 µM | 1.87 µM | 4.19 µM | 2.01 µM | 5.97 µM | 2.71 µM | 10.5 µM | 2.16 µM | 4.88 µM |
| OCC1OC(n2cnc3c(NCc4ccco4)ncnc32)C(O)C1O (stereo not given) | 0.585 µM | 6.25 µM | 4.43 µM | > 100 µM | 3.34 µM | 29.7 µM | 1.56 µM | 6.92 µM | 0.567 µM | 53.7 µM | 1.6 µM | 14.2 µM | 2.6 µM | 36.9 µM | 0.542 µM | > 100 µM | 0.386 µM | > 100 µM | 52.5 µM | > 100 µM |
| O=C1c2ccccc2C(=O)c2sc(Nc3ccc([N+](=O)[O-])cc3)nc21 |  | 7.17 µM |  | 8.71 µM |  | 8.31 µM |  | 7.97 µM |  | 8.94 µM |  | 36.8 µM |  | 41.7 µM |  | 7.55 µM |  | 8.15 µM |  | 11.7 µM |
| CNC(=O)NCCN1N=C(C)/C(=C\c2ccccc2)CC1=O |  | > 100 µM |  | > 100 µM |  | > 100 µM |  | > 100 µM |  | > 100 µM |  | > 100 µM |  | > 100 µM |  | > 100 µM |  | > 100 µM |  | > 100 µM |
| CCN(CC)CCCNc1cc(OC)c(OC)c2cccnc12 | 3.27 µM | 8.88 µM | 3.71 µM | 21 µM | 3.16 µM | 28.7 µM | 1.22 µM | > 100 µM | 14.1 µM | > 100 µM | 9.37 µM | 44.9 µM | 10.5 µM | 38.1 µM | 2.61 µM | 46.3 µM | 2.47 µM | 7.7 µM | 4.55 µM | 22.4 µM |
